Reference: US8829000B2, “Substituted imidazo[1,5-A]quinoxalines as phosphodiesterase 9 inhibitors” (ASKA Pharmaceutical Co., Ltd., priority 2006, dated 2014)
Where a name gives a salt, the structure may show the parent alone.

Tested on: partial urethra obstruction model in guinea pigs
Test: Dysuria pathological model: cystometry in partial urethra obstruction model
Assay type: in vivo, Hartley female guinea pigs
Details: guinea pig; for Frequency of occurrence of uninhibited contraction, before administration / Residual urine volume, before administration: baseline
Procedure: Three-four weeks old Hartley female guinea pigs (Japan SLC, Inc.) were given celiotomy under anesthesia with pentobarbital (30 mg/kg i.p.) and in their urethra to the peripheral side by 1-2 mm from the bladder neck, each a polyethylene tube of […] and 2.0 mm in inner diameter was placed.
The model was catheterized under anesthesia with urethane (1 g/kg i.p.) at the apex of urinary bladder and right jugular vein for cystometrography and intravenous administration, respectively. The other end of the bladder catheter was connected to a pressure transducer and infusion pump via a three way stop-cock, and physiological saline was continuously infused into the bladder through the infusion pump at a rate of 0.4 mL/min. to induce micturition reflex. Immediately after the micturition reflex was induced, infusion of physiological saline into the bladder was stopped. The intravesical pressure at the time the micturition reflex was induced was measured with the pressure transducer, and the obtained cystometrogram was recorded with pen recorder. The urine voided was collected with disposable type weighing dish and its weight was measured. Further the physiological saline remained in the bladder was sucked with syringe via the bladder catheter and the residual urine volume was measured. The operations of suspending the infusion of physiological saline upon induction of micturition reflex, and about 1 minute thereafter resuming the infusion of physiological saline to induce micturition reflex were repeated plural times (generally 4 times) to stabilize the micturition reflex.
After stabilizing the micturition reflex, a compound solution (prepared by dissolving the compound or methanesulfonic acid salt thereof in DMSO and diluting it with physiological saline or distilled water) or physiological saline was administered into the vein at a volume of 10 mL/kg over 4 minutes, and simultaneously the above-described micturition reflex operations were repeated until 30 minutes passed after initiation of the administration, while measuring the intravesical pressure and the volumes of micturition and residual urine. Also the frequency of uninhibited contraction occurrence during the above-described operations was recorded.

`CC(C)c1ncc2c(=O)[nH]c3cc(Cl)ccc3n12` [Example 6 (methanesulfonic acid salt)] was tested, and the “Frequency of occurrence of uninhibited contraction, after administration” value (0.1 mg/kg i.v.) was 1.82 times/min, the “Frequency of occurrence of uninhibited contraction, quantitative change” value (0.1 mg/kg i.v.) was “+0.62 times/min” and the “Residual urine volume, after administration” value (0.1 mg/kg i.v.) was 0.13 mL. For the same molecule, the “Residual urine volume, quantitative change” value (0.1 mg/kg i.v.) was -0.12 mL, the “Frequency of occurrence of uninhibited contraction, after administration” value (1 mg/kg i.v.) was 1.97 times/min and the “Frequency of occurrence of uninhibited contraction, quantitative change” value (1 mg/kg i.v.) was “+0.77 times/min”. For the same molecule, the “Residual urine volume, after administration” value (1 mg/kg i.v.) was 0.47 mL, the “Residual urine volume, quantitative change” value (1 mg/kg i.v.) was 0.22 mL and the “Frequency of occurrence of uninhibited contraction, after administration” value (3 mg/kg i.v.) was 0.68 times/min. The “Frequency of occurrence of uninhibited contraction, quantitative change” value (3 mg/kg i.v.) was −0.52 times/min, the “Residual urine volume, after administration” value (3 mg/kg i.v.) was 0.21 mL and the “Residual urine volume, quantitative change” value (3 mg/kg i.v.) was -0.04 mL. The “Frequency of occurrence of uninhibited contraction, before administration” value (dose group 0.1 mg/kg i.v.) was 1.20 times/min, the “Residual urine volume, before administration” value (dose group 0.1 mg/kg i.v.) was 0.25 mL and the “Frequency of occurrence of uninhibited contraction, before administration” value (dose group 1 mg/kg i.v.) was 1.20 times/min. The “Residual urine volume, before administration” value (dose group 1 mg/kg i.v.) was 0.25 mL, the “Frequency of occurrence of uninhibited contraction, before administration” value (dose group 3 mg/kg i.v.) was 1.20 times/min and the “Residual urine volume, before administration” value (dose group 3 mg/kg i.v.) was 0.25 mL.

`CC(C)c1ncc2c(=O)[nH]c3cc(C(=O)N(C)C)ccc3n12` [Example 9 (methanesulfonic acid salt)] was tested, and the “Frequency of occurrence of uninhibited contraction, after administration” value (0.3 mg/kg i.v.) was 1.45 times/min, the “Frequency of occurrence of uninhibited contraction, quantitative change” value (0.3 mg/kg i.v.) was −0.64 times/min and the “Residual urine volume, after administration” value (0.3 mg/kg i.v.) was 0.11 mL. The “Residual urine volume, quantitative change” value (0.3 mg/kg i.v.) was -0.32 mL, the “Frequency of occurrence of uninhibited contraction, after administration” value (3 mg/kg i.v.) was 0.99 times/min and the “Frequency of occurrence of uninhibited contraction, quantitative change” value (3 mg/kg i.v.) was −1.10 times/min. For the same molecule, the “Residual urine volume, after administration” value (3 mg/kg i.v.) was 0.63 mL, the “Residual urine volume, quantitative change” value (3 mg/kg i.v.) was “+0.20 mL” and the “Frequency of occurrence of uninhibited contraction, after administration” value (10 mg/kg i.v.) was 0.00 times/min. The “Frequency of occurrence of uninhibited contraction, quantitative change” value (10 mg/kg i.v.) was −0.57 times/min, the “Residual urine volume, after administration” value (10 mg/kg i.v.) was 0.03 mL and the “Residual urine volume, quantitative change” value (10 mg/kg i.v.) was -0.34 mL. For the same molecule, the “Frequency of occurrence of uninhibited contraction, before administration” value (dose group 0.3 mg/kg i.v.) was 2.09 times/min, the “Residual urine volume, before administration” value (dose group 0.3 mg/kg i.v.) was 0.43 mL and the “Frequency of occurrence of uninhibited contraction, before administration” value (dose group 3 mg/kg i.v.) was 2.09 times/min. For the same molecule, the “Residual urine volume, before administration” value (dose group 3 mg/kg i.v.) was 0.43 mL, the “Frequency of occurrence of uninhibited contraction, before administration” value (dose group 10 mg/kg i.v.) was 0.57 times/min and the “Residual urine volume, before administration” value (dose group 10 mg/kg i.v.) was 0.37 mL.
